Experimental data from ChEMBL document CHEMBL5214927, “Recent advance on carbamate-based cholinesterase inhibitors as potential multifunctional agents against Alzheimer's disease” (Eur J Med Chem, 2022).

Columns and labels:
[1] = target: Carbonic anhydrase 1 (Homo sapiens, UniProt P00915); test: Binding affinity to human CA1 assessed as inhibition constant using p-nitrophenylacetate as substrate by spectrophotometry
[2] = target: Carbonic anhydrase 2 (Homo sapiens, UniProt P00918); test: Binding affinity to human CA2 assessed as inhibition constant using p-nitrophenylacetate as substrate by spectrophotometry
[3] = target: T1, Acetylcholinesterase (Homo sapiens, UniProt P22303); test: Binding affinity to AChE (unknown origin) assessed as inhibition constant using acetylthiocholine iodide as substrate preincubated for 10 mins followed by substrate addition by Ellman's method
T1 sequence (P22303 whole entry): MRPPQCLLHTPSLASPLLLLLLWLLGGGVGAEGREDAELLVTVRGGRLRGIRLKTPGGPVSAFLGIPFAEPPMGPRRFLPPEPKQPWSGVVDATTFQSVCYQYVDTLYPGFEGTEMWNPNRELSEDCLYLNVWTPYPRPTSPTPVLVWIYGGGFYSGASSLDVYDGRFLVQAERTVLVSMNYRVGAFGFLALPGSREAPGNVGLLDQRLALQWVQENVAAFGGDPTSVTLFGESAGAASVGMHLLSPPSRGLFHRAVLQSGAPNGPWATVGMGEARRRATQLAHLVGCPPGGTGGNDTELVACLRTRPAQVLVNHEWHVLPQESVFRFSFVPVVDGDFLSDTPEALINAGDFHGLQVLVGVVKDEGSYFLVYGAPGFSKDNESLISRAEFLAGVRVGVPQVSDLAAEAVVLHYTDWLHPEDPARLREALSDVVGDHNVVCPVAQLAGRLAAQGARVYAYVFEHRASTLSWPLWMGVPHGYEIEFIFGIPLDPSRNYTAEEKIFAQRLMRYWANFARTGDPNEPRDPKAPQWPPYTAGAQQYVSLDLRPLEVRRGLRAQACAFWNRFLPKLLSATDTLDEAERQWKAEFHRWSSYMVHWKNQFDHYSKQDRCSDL

[4] = target: T2, Acetylcholinesterase (Rattus norvegicus, UniProt P37136); test: Inhibition of rat AChE by Ellman's method
T2 sequence (P37136 whole entry): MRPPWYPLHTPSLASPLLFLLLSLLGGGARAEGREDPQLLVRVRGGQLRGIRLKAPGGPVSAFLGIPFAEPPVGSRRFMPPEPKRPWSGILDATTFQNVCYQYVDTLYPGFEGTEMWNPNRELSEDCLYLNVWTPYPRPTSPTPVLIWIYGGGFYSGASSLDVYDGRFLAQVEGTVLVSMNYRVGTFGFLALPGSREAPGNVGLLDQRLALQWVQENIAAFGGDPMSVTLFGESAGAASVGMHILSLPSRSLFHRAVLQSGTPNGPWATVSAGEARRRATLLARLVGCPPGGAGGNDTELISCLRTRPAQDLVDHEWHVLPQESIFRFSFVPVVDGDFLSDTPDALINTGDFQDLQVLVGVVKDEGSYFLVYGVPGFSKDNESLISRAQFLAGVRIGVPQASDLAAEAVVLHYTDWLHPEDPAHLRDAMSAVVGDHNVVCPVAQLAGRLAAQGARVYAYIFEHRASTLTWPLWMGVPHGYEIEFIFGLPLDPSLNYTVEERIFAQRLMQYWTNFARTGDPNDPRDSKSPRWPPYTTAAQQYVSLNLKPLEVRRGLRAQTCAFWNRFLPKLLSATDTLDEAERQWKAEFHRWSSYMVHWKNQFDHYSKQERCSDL

[5] = target: T3, Amine oxidase [flavin-containing] A (Homo sapiens, UniProt P21397); test: Inhibition of MAO-A (unknown origin)
T3 sequence (P21397 whole entry): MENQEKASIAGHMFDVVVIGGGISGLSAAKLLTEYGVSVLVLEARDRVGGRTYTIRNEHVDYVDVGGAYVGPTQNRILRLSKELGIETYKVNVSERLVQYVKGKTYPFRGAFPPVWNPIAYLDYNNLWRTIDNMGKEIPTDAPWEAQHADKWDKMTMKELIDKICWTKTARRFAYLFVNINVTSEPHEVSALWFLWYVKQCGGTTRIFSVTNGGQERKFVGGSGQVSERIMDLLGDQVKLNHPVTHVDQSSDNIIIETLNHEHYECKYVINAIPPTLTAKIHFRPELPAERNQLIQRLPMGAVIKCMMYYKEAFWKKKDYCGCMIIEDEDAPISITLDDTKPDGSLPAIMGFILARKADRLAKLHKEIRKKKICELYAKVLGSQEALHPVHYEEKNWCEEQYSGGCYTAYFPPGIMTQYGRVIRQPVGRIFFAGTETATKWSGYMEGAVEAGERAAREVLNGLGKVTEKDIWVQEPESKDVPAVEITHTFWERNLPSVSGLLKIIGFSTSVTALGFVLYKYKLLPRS

[6] = target: T4, Amine oxidase [flavin-containing] B (Homo sapiens, UniProt P27338); test: Inhibition of MAO-B (unknown origin)
T4 sequence (P27338 whole entry): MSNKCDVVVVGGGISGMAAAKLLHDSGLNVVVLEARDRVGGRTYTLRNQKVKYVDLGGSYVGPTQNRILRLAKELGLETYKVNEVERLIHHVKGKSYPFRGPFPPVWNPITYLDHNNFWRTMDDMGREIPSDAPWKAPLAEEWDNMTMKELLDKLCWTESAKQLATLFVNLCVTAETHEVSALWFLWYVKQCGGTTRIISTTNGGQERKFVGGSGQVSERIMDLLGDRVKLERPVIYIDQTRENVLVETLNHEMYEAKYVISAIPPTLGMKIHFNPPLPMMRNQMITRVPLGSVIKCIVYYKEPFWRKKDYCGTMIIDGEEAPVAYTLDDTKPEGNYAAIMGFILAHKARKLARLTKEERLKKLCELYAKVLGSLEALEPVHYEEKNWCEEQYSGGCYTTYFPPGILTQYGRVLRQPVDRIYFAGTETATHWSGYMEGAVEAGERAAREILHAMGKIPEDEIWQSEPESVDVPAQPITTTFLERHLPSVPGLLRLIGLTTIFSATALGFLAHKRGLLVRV

[7] = target: T1, Acetylcholinesterase; test: Inhibition of recombinant human AChE using acetylthiocholine as substrate at 100 uM preincubated for 5 mins followed by substrate addition measured for 1 min by Ellman's method relative to control; conditions: time 6.0 min
[8] = target: T3, Amine oxidase [flavin-containing] A; test: Inhibition of recombinant human MAO-A expressed in BTI-TN-5B1-4 insect cells using p-tyramine as substrate at 100 uM preincubated for 15 mins followed by substrate addition measured after 20 mins by Amplex Red assay relative to control; conditions: BTI-TN-5B1-4, human, time 35 min
[9] = target: T1, Acetylcholinesterase; test: Binding affinity to AChE (unknown origin) assessed as inhibition constant preincubated for 60 mins followed by substrate addition measured after 60 mins by colorimetric method
[10] = target: Beta-secretase 1 (Homo sapiens, UniProt P56817); test: Inhibition of BACE1 (unknown origin) using A-beta-PP as substrate by fluorescence based assay
[11] = target: T1, Acetylcholinesterase; test: Binding affinity to AChE (unknown origin) assessed as inhibition constant
[12] = Toxicity in mouse assessed as lethal dose; conditions: in vivo
[13] = target: T1, Acetylcholinesterase; test: Inhibition of human erythrocyte AChE using acetylthiocholine iodide as substrate preincubated for 6 mins followed by substrate addition measured upto 180 secs by Ellman's method
[14] = target: T4, Amine oxidase [flavin-containing] B; test: Inhibition of recombinant human MAO-B using p-tyramine as substrate preincubated for 15 mins followed by substrate addition measured upto 20 mins by Amplex red assay
[15] = target: T3, Amine oxidase [flavin-containing] A; test: Inhibition of recombinant human MAO-A using p-tyramine as substrate preincubated for 15 mins followed by substrate addition measured upto 20 mins by Amplex red assay
[16] = target: Cholinesterase (Equus caballus, UniProt P81908); test: Inhibition of equine BChE
Chain of Cholinesterase (Equus caballus, UniProt P81908) (P81908 whole entry): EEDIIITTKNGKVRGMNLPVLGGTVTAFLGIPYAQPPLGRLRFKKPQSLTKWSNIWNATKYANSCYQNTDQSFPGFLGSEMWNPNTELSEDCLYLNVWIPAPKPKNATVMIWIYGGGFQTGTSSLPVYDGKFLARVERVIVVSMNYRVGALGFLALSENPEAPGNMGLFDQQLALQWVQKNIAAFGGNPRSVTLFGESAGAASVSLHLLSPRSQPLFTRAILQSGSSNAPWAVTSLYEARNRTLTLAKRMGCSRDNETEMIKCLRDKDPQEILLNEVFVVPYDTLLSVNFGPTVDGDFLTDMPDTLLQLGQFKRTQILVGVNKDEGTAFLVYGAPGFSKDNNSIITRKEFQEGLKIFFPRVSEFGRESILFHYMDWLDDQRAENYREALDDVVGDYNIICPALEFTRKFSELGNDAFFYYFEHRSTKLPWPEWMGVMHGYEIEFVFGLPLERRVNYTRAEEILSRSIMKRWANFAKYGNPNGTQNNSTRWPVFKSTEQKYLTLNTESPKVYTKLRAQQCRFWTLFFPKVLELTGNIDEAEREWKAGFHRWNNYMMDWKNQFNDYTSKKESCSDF

[17] = target: High affinity cGMP-specific 3',5'-cyclic phosphodiesterase 9A (Homo sapiens, UniProt O76083); test: Inhibition of PDE9A (unknown origin)
Chain of High affinity cGMP-specific 3',5'-cyclic phosphodiesterase 9A (O76083 whole entry): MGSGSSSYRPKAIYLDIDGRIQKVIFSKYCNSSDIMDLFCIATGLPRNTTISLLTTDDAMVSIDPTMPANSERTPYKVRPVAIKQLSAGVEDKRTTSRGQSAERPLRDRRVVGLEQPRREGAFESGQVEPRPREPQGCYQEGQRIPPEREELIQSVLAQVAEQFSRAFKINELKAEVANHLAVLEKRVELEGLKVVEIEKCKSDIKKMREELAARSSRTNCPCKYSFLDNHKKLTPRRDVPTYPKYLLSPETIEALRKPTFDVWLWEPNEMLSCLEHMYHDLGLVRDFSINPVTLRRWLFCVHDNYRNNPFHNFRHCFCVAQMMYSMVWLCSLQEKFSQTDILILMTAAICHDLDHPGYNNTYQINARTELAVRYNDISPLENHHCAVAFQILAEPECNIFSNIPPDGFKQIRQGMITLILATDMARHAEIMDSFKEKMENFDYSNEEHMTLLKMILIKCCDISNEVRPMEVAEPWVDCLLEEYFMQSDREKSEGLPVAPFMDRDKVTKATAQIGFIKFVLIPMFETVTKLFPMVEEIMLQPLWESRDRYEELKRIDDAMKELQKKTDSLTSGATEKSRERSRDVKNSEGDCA

[18] = target: T5, Cholinesterase (Homo sapiens, UniProt P06276); test: Inhibition of recombinant human serum BChE using butyrylthiocholine iodide as substrate preincubated for 20 mins followed by substrate addition measured for 45 to 90 mins by Ellman's method
T5 sequence (P06276 whole entry): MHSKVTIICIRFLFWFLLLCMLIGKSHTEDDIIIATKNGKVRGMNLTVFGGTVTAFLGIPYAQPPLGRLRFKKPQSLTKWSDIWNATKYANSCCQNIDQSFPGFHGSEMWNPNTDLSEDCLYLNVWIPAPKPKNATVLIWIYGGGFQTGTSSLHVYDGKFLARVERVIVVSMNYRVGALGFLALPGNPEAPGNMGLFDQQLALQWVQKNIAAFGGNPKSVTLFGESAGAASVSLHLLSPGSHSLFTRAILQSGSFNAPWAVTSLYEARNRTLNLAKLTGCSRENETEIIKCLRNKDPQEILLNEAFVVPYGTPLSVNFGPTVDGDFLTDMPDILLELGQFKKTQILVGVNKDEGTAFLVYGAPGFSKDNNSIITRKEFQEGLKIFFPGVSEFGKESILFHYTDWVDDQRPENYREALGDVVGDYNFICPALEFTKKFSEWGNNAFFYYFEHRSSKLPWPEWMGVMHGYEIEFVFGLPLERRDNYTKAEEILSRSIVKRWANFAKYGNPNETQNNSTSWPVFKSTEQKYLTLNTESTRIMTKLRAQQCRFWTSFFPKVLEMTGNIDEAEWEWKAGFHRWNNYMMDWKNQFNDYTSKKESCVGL

[19] = target: Fatty-acid amide hydrolase 1 (Rattus norvegicus, UniProt P97612); test: Displacement of [14C]-ethanolamine from FAAH derived from rat brain membrane fraction preincubated for 20 mins followed by susbstrate addition by scintillation counting method; type: cell membranes
Chain of Fatty-acid amide hydrolase 1 (P97612 whole entry): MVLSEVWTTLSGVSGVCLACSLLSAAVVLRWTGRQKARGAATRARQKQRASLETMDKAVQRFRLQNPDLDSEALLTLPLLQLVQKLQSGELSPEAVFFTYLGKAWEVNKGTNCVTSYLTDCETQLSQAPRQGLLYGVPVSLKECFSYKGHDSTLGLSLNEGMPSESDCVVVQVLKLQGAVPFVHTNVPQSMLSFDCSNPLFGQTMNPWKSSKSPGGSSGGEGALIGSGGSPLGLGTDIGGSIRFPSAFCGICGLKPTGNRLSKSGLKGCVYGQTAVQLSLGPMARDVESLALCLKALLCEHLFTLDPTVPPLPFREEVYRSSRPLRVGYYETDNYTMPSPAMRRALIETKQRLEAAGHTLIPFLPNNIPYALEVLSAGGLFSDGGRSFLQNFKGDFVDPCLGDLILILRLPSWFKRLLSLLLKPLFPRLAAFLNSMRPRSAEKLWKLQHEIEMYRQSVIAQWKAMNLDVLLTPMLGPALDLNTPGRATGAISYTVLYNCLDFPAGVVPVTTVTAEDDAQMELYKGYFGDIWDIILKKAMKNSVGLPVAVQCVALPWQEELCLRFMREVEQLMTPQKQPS

[20] = target: T6, Cholinesterases; ACHE & BCHE (Homo sapiens) (UniProt P06276+P22303); test: Selectivity index, ratio of IC50 for recombinant human serum AChE to IC50 for recombinant human serum BChE; type: protein assay
T6 sequence (P06276 whole entry, looked up): as the sequence (P06276 whole entry) above
T6 sequence (P22303 whole entry, looked up): as the sequence (P22303 whole entry) above

[21] = target: T1, Acetylcholinesterase; test: Inhibition of human whole red blood cells AChE using acetylthiocholine iodide as substrate incubated for 25 mins by Ellman's method
[22] = target: T5, Cholinesterase; test: Inhibition of human whole red blood cells BChE using butyrylthiocholine iodide as substrate incubated for 25 mins by Ellman's method
[23] = target: T6, Cholinesterases; ACHE & BCHE (Homo sapiens); test: Selectivity index, ratio of IC50 for human whole red blood cells BChE to IC50 for human whole red blood cells AChE
[24] = target: T2, Acetylcholinesterase; test: Inhibition of rat cortex AChE using acetylthiocholine iodide as substrate incubated for 15 mins by Ellman's method
[25] = target: Butyrylcholinesterase (Rattus norvegicus, UniProt Q9JKC1); test: Inhibition of rat serum BChE using butyrylthiocholine iodide as substrate incubated for 15 mins by Ellman's method
[26] = target: Acetylcholinesterase and butyrylcholinesterase (AChE and BChE) (Rattus norvegicus) (UniProt P37136+Q9JKC1); test: Selectivity index, ratio of IC50 for rat serum BChE to IC50 for rat cortex AChE
Chain of Acetylcholinesterase and butyrylcholinesterase (AChE and BChE) (Rattus norvegicus) (Q9JKC1 1-597, one chain of several): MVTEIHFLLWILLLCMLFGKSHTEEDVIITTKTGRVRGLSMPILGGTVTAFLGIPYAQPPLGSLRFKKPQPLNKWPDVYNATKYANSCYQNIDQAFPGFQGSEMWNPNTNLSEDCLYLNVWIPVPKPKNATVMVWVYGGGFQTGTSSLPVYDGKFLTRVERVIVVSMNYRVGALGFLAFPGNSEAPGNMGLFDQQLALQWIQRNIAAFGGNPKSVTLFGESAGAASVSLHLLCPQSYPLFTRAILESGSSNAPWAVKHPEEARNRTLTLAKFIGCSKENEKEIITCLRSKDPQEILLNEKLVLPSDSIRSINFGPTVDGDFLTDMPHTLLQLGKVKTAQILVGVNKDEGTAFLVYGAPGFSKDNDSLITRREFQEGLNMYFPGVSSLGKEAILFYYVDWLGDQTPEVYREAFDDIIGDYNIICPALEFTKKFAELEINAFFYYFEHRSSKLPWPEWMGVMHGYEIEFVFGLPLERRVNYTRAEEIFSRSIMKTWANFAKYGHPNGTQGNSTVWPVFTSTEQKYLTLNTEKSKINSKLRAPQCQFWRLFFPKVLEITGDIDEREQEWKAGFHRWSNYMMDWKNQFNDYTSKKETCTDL

[27] = target: T1, Acetylcholinesterase; test: Inhibition of human AChE
[28] = target: Muscarinic acetylcholine receptor M1 (Homo sapiens, UniProt P11229); test: Binding affinity to Muscarinic acetylcholine receptor M1 (unknown origin) assessed as inhibition constant
[29] = target: Muscarinic acetylcholine receptor M2 (Homo sapiens, UniProt P08172); test: Binding affinity to Muscarinic acetylcholine receptor M2 (unknown origin) assessed as inhibition constant
Chain of Muscarinic acetylcholine receptor M2 (P08172 whole entry): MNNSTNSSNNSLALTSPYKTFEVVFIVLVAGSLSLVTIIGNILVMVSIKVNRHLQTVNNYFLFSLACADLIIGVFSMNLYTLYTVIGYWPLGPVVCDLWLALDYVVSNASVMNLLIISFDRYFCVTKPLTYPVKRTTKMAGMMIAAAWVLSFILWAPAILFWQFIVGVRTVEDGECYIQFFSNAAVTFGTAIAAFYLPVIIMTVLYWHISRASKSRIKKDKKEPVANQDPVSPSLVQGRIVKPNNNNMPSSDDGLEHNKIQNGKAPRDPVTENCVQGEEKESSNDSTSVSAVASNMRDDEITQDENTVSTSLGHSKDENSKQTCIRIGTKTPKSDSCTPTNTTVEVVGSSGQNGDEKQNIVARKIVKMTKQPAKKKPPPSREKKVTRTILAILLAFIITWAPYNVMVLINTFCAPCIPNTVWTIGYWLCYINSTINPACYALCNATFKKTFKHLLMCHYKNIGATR

[30] = target: Muscarinic acetylcholine receptor M3 (Homo sapiens, UniProt P20309); test: Binding affinity to Muscarinic acetylcholine receptor M3 (unknown origin) assessed as inhibition constant
[31] = target: Acetylcholinesterase (Bos taurus, UniProt P23795)
Chain of Acetylcholinesterase (Bos taurus, UniProt P23795) (P23795 whole entry): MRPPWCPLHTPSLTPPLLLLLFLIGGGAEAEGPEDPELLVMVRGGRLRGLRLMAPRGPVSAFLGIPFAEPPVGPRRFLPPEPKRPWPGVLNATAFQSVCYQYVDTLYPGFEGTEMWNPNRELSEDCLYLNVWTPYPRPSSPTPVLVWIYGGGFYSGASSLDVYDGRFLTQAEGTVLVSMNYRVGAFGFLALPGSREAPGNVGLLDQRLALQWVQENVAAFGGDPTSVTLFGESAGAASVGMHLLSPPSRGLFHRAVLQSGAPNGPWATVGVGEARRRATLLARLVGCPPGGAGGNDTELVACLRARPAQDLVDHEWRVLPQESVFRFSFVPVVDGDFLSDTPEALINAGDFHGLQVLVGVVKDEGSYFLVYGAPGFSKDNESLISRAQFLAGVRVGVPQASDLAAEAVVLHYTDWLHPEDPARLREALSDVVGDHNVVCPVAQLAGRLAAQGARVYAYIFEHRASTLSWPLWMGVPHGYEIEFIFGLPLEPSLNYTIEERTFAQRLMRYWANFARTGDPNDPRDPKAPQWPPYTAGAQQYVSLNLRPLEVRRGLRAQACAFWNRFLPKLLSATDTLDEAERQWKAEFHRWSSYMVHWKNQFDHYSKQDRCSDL
Description: Inhibition of bovine AChE

[32] = target: T6, Cholinesterases; ACHE & BCHE (Homo sapiens); test: Selectivity index, ratio of IC50 for AChE (unknown origin) to BChE (unknown origin); type: protein assay
[33] = target: Acetylcholinesterase (Torpedo californica, UniProt P04058)
Description: Inhibition of Pacific electric ray AChE using acetylthiocholine iodide as substrate by Ellman's method

Chain of Carbonic anhydrase 1 (P00915 whole entry): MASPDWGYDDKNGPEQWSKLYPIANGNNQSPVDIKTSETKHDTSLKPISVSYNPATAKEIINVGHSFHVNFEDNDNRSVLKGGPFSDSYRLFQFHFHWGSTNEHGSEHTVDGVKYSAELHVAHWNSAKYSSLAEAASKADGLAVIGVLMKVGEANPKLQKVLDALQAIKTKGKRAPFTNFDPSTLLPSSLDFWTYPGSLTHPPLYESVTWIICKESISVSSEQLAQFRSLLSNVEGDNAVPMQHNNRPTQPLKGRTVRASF

SMILES: COc1cccc2c1CCC(NC(=O)OCc1ccccc1)C2 (stereo not drawn)
- Ki [1]: 0.00589 µM
- Ki [2]: 0.00739 µM
- Ki [3]: 0.000264 µM

SMILES: CC/N=C1\CCc2c1n(C)c1ccc(OC(=O)NC)c(Br)c21
- IC50 [4]: 0.14 µM
- IC50 [5]: 0.21 µM
- IC50 [6]: > 1000 µM

SMILES: C#CCN1CCC(CCc2cccc(OC(=O)N(C)CC)c2)CC1
- inhibition [7]: 50.2%
- inhibition at 100 µM [8]: 69.4%

SMILES: CC1CCCCN1CCCNC(=O)c1cc(NC(=O)OC(C)(C)C)ccc1O (stereo not drawn)
- Ki [9]: 0.17 µM
- IC50 [10]: 0.0154 µM

SMILES: CCCCCCCNC(=O)Oc1ccc2c(c1)[C@]1(C)CCN(C)[C@@H]1N2C [EPTASTIGMINE]
- Ki [11]: 0.1 µM
- LD50 [12]: 35 mg/kg

SMILES: Cc1c(Cl)c(=O)oc2cc(OCCCCSC(=S)N3CCCCC3C)ccc12 (stereo not drawn)
- IC50 [13]: 0.0068 µM
- IC50 [14]: 0.876 µM

SMILES: Cc1c(Cl)c(=O)oc2cc(OCCCCSC(=S)N3C(C)CCCC3C)ccc12 (stereo not drawn)
- IC50 [13]: 0.114 µM
- IC50 [15]: 5.85 µM

SMILES: CCN(C)C(=O)Oc1ccc(CNc2nc3c(cnn3C3CCCC3)c(=O)[nH]2)cc1OC
- IC50 [16]: 3.3 µM
- IC50 [17]: 0.014 µM

SMILES: CN(CCCOc1ccc2ccc(=O)oc2c1)Cc1cccc(OC(=O)NC2CCCC2)c1
- IC50 [18]: 0.00642 µM
- IC50 [19]: 0.00253 µM
- Ratio IC50 [20]: 61.9

SMILES: COc1ccc(NC(=O)Oc2ccc3c(c2)[C@]2(O)CCN(C(C)=O)[C@@H]2N3)cc1
- IC50 [21]: > 100 µM
- IC50 [22]: 2.31 µM
- Ratio IC50 [23]: > 43

SMILES: CCNC(=O)Oc1ccc(-c2cc(=O)c3c(O)c(O)c(O)cc3o2)cc1
- IC50 [24]: 1.2 µM
- IC50 [25]: 22.1 µM
- Ratio IC50 [26]: 18.4

SMILES: COc1cccc2c1CCCC2NS(=O)(=O)NC(=O)OCc1ccccc1 (stereo not drawn)
- IC50 [1]: 0.00449 µM
- IC50 [2]: 0.00494 µM
- IC50 [3]: 0.000209 µM

SMILES: CNC(=O)Oc1cccc2c1CCC1C2CCN1CCC1CCCCC1 (stereo not drawn)
- IC50 [27]: 0.058 µM
- Ki [28]: 0.657 µM
- Ki [29]: 0.132 µM
- Ki [30]: 1.52 µM

SMILES: CCN(C)C(=O)Oc1cccc2c1NCC2CCC(=O)OC (stereo not drawn)
- IC50 [16]: 61.6 µM
- IC50 [31]: 0.008 µM

SMILES: CCc1ccccc1NC(=O)Oc1ccc2c(c1)[C@]1(C)CC[N+](C)([O-])[C@@H]1N2C (stereo partly drawn)
- Ratio IC50 [32]: 115
- IC50 [33]: 0.00474 µM
